Test results taken from patent publication US6448279B1, “Isothiazolone/amine oxide wood preservatives” (Lonza Inc., priority 1999, dated 2002).

How the values were obtained:
Experiment in all cases: agar dilution plate method, percent retardation of wood rot fungi
Type in all cases: cell-based
[1] = system: G. trabeum (brown rot fungi)
Description: (§1) The efficacy of aqueous 1,2-benzisothiazolone/amine oxide solutions containing the amine oxides in Table 1 against the wood rot fungi T. versicolor (white rot fungi), G. trabeum (brown rot fungi), P. placenta (brown rot fungi), and C. globosum (soft rot decay fungi) were determined using the agar dilution plate method well known in the art. The water in the solution was evaporated to form an agar/biocide mixture and then tested. Each solution was tested at dilutions ranging from 10 to 5000 ppm of benzisothiazolone. The weight ratio of amine oxide to 1,2-benzisothiazolone was either 20:1 or 10:1 in each solution. The percent retardation of the fungi was determined by the percentage change in the diameter of the fungi on the agar plate (i.e. Percent Retardation=((Diameter of Control)−(Diameter of Treated Fungi))/(Diameter of Control)* 100%).
(§2) The efficacy of aqueous 4,5-dichloro-2-n-octyl-3-isothiazolone/amine oxide solutions containing the amine oxides in Table 2 against the wood rot fungi T. versicolor (white not fungi), G. trabeum (brown rot fungi), P. placenta (brown rot fungi), and C. globosum (soft rot decay fungi) were determined as described in Example 6.

[2] = system: P. placenta (brown rot fungi)
Description: as §1, §2

[3] = system: T. versicolor (white rot fungi)
Description: as §1, §2

[4] = system: C. globosum (soft rot decay fungi)
Description: as §1, §2

[5] = no amine oxide, 4,5-dichloro-2-n-octyl-isothiazolone 0.5 ppm
[6] = no amine oxide, 4,5-dichloro-2-n-octyl-isothiazolone 5 ppm
[7] = no amine oxide, 4,5-dichloro-2-n-octyl-isothiazolone 50 ppm
[8] = no amine oxide, 4,5-dichloro-2-n-octyl-isothiazolone 100 ppm
[9] = no amine oxide, 4,5-dichloro-2-n-octyl-isothiazolone 250 ppm
[10] = no amine oxide, 4,5-dichloro-2-n-octyl-isothiazolone 500 ppm
[11] = no amine oxide, 4,5-dichloro-2-n-octyl-isothiazolone 750 ppm

With `CCCCCCCCn1sc(Cl)c(Cl)c1=O` [4,5-dichloro-2-n-octyl-isothiazolone, 4,5-dichloro-2-n-octyl-3-isothiazolone] the “Percent Retardation G. trabeum” value [1, 5] was 11%, the “Percent Retardation G. trabeum” value [1, 6] was 63% and the “Percent Retardation G. trabeum” value [1, 7] was 83%. The “Percent Retardation G. trabeum” value [1, 8] was 85%, the “Percent Retardation G. trabeum” value [1, 9] was 87% and the “Percent Retardation G. trabeum” value [1, 10] was 88%. For the same molecule, the “Percent Retardation G. trabeum” value [1, 11] was 100%, the “Percent Retardation P. placenta” value [2, 5] was 42% and the “Percent Retardation P. placenta” value [2, 6] was 83%. The “Percent Retardation P. placenta” value [2, 7] was 100%, the “Percent Retardation P. placenta” value [2, 8] was 100% and the “Percent Retardation P. placenta” value [2, 9] was 100%. The “Percent Retardation P. placenta” value [2, 10] was 100%, the “Percent Retardation T Versicolor” value [3, 5] was 12% and the “Percent Retardation T Versicolor” value [3, 6] was 51%. For the same molecule, the “Percent Retardation T Versicolor” value [3, 7] was 82%, the “Percent Retardation T Versicolor” value [3, 8] was 87% and the “Percent Retardation T Versicolor” value [3, 9] was 87%. The “Percent Retardation T Versicolor” value [3, 10] was 88%, the “Percent Retardation T Versicolor” value [3, 11] was 100% and the “Percent Retardation C. globosum” value [4, 5] was 63%. The “Percent Retardation C. globosum” value [4, 6] was 60%, the “Percent Retardation C. globosum” value [4, 7] was 67% and the “Percent Retardation C. globosum” value [4, 8] was 78%. The “Percent Retardation C. globosum” value [4, 9] was 89%, the “Percent Retardation C. globosum” value [4, 10] was 100% and the “Percent Retardation C. globosum” value [4, 11] was 100%.
